In publication PMC11620503 (Antimicrobial Agents and Chemotherapy, 2024):
Converted amounts (≈) assume the structure as drawn. “And” between values parts separate entries of the source, which are not always exact repeats. Equal values may be shown once. Read-outs that look alike come from different tables or passages of the source. Marks after values point to notes of the source that are not given here.

Assays:
NDM-6 = NDM-6 (Klebsiella pneumoniae, UniProt C7C422, A233V); experiment: Ki app determination (Waley's method)
IMP-1 = IMP-1 (Serratia marcescens, UniProt P52699); experiment: Ki app determination (Waley's method)
SHV-5 = SHV-5 (Klebsiella pneumoniae, UniProt P0A3M1); experiment: Ki app determination (Waley's method)
IMP-6 = IMP-6 (Serratia marcescens, UniProt P52699, S214G); experiment: Ki app determination (Waley's method)
SHV-2 = SHV-2 (Klebsiella pneumoniae, UniProt P0A9Z8); experiment: Ki app determination (Waley's method)
CTX-M-27 = CTX-M-27 (Escherichia coli, UniProt Q840M4); experiment: Ki app determination (Waley's method)
NDM-1 = NDM-1 (Klebsiella pneumoniae, UniProt C7C422); experiment: Ki app determination (Waley's method)
NDM-7 = NDM-7 (Klebsiella pneumoniae, UniProt C7C422, D130N/M154L); experiment: Ki app determination (Waley's method)
OXA-72 = OXA-72 (Acinetobacter baumannii, UniProt Q5XQU0); experiment: Ki app determination (Waley's method)
VIM-2 = VIM-2 (Escherichia coli, UniProt Q5U7L7); experiment: Ki app determination (Waley's method)
NDM-5 = NDM-5 (Klebsiella pneumoniae, UniProt C7C422, M154L/V88L); experiment: Ki app determination (Waley's method)
NDM-4 = NDM-4 (Klebsiella pneumoniae, UniProt C7C422, M154L); experiment: Ki app determination (Waley's method)
OXA-66 = OXA-66 (Acinetobacter baumannii, UniProt Q58XD2); experiment: Ki app determination (Waley's method)
CTX-M-14 = CTX-M-14 (Escherichia coli, UniProt Q9L5C7); experiment: Ki app determination (Waley's method)
CTX-M-15 = CTX-M-15 (Escherichia coli, UniProt Q9EXV5); experiment: Ki app determination (Waley's method)
OXA-65 = OXA-65 (Acinetobacter baumannii, UniProt Q58XD3); experiment: Ki app determination (Waley's method)
SHV-12 = SHV-12 (Klebsiella pneumoniae, UniProt P0A3M1, L31Q); experiment: Ki app determination (Waley's method)
VIM-1 = VIM-1 (Pseudomonas aeruginosa, UniProt A0A0F7KYQ8); experiment: Ki app determination (Waley's method)
[1] = system: MEM-nonsusceptible Enterobacterales with serine-carbapenemases; experiment: MIC, broth microdilution; assay type: cell-based; conditions: MEM-nonsusceptible Enterobacterales with serine-carbapenemases (58)
[2] = system: MEM-nonsusceptible Enterobacterales with metallo-carbapenemases; experiment: MIC, broth microdilution; assay type: cell-based; conditions: MEM-nonsusceptible Enterobacterales with metallo-carbapenemases (55), cefiderocol 54 isolates
[3] = system: 207 Enterobacterales including carbapenem-resistant isolates; experiment: MIC, broth microdilution; assay type: cell-based
[4] = system: MBL-producing isolates (Enterobacterales); experiment: MIC, broth microdilution; assay type: cell-based
[5] = system: MEM-nonsusceptible Enterobacterales; experiment: MIC, broth microdilution; assay type: cell-based; conditions: MEM-nonsusceptible Enterobacterales (127), cefiderocol 126 isolates
[6] = system: 55 isolates of A. baumannii; experiment: MIC, broth microdilution; assay type: cell-based, Acinetobacter baumannii; conditions: Acinetobacter baumannii (55)
[7] = system: MEM-, imipenem/relebactam-, and ceftolozane/tazobactam-nonsusceptible P. aeruginosa; experiment: MIC, broth microdilution; assay type: cell-based, Pseudomonas aeruginosa
96 P. aeruginosa = experiment: MIC, broth microdilution; assay type: cell-based, Pseudomonas aeruginosa; conditions: Pseudomonas aeruginosa (96); for MIC Range / MIC50 / MIC90: fixed concentration (μg/mL) in label
[8] = system: serine-carbapenemase-producing isolates (Enterobacterales); experiment: MIC, broth microdilution; assay type: cell-based; conditions: Enterobacterales with serine-carbapenemases (80)
[9] = CLSI breakpoints, marked c: breakpoints for β-lactam alone, tigecycline: FDA breakpoints
[10] = fixed concentration (μg/mL) in label
[11] = fixed concentration (μg/mL) in label, read-out: MIC50
[12] = fixed concentration (μg/mL) in label, read-out: MIC90
[13] = All Enterobacterales (207), cefiderocol 205 isolates, CLSI breakpoints, marked c: breakpoints for β-lactam alone, tigecycline: FDA breakpoints
[14] = All Enterobacterales (207), cefiderocol 205 isolates, fixed concentration (μg/mL) in label
[15] = Enterobacterales with metallo-carbapenemases (74), cefiderocol 73 isolates, CLSI breakpoints, marked c: breakpoints for β-lactam alone, tigecycline: FDA breakpoints
[16] = Enterobacterales with metallo-carbapenemases (74), cefiderocol 73 isolates, fixed concentration (μg/mL) in label
[17] = MEM-nonsusceptible Pseudomonas aeruginosa (76), fixed concentration (μg/mL) in label
[18] = CLSI breakpoints, marked c: breakpoints for β-lactam alone
[19] = MEM-nonsusceptible Pseudomonas aeruginosa (76), CLSI breakpoints, marked c: breakpoints for β-lactam alone

NC(=O)[C@@H]1CC[C@@H]2CN1C(=O)N2OS(=O)(=O)O [Avibactam, avibactam]
Ki (NDM-6): > 100000 nM
Ki (IMP-1): > 100000 nM
Ki (SHV-5): 2.15 ± 0.264 nM
Ki (IMP-6): > 100000 nM
Ki (SHV-2): 2.26 ± 1.44 nM
Ki (CTX-M-27): 1.29 ± 0.663 nM
Ki (NDM-1): > 100000 nM
Ki (NDM-7): > 100000 nM
Ki (OXA-72): 691 ± 63.8 nM
Ki (VIM-2): > 100000 nM
Ki (NDM-5): > 100000 nM
Ki (NDM-4): > 100000 nM
Ki (OXA-66): 7350 nM
Ki (CTX-M-14): 2.35 ± 0.763 nM
Ki (CTX-M-15): 0.369 ± 0.0569 nM
Ki (OXA-65): 5900 nM
Ki (SHV-12): 2.55 ± 0.696 nM
Ki (VIM-1): > 100000 nM

CN(C)c1cc(NC(=O)CNC(C)(C)C)c(O)c2c1C[C@H]1C[C@H]3[C@H](N(C)C)C(O)=C(C(N)=O)C(=O)[C@@]3(O)C(O)=C1C2=O [tigecycline]
CLSI MIC interpretation I (intermediate) [1, 9]: 1.7^d %
CLSI MIC interpretation R (resistant) [1, 9]: 0.0^d %
CLSI MIC interpretation S (susceptible) [1, 9]: 98.3^d %
MIC Range [1, 10]: 0.12 to 4 µg/mL
MIC50 [1, 11]: 1 µg/mL (≈ 1.71 µM)
MIC90 [1, 12]: 2 µg/mL (≈ 3.41 µM)
CLSI MIC interpretation I (intermediate) [2, 9]: 10.9^d %
CLSI MIC interpretation R (resistant) [2, 9]: 0.0^d %
CLSI MIC interpretation S (susceptible) [2, 9]: 89.1^d %
MIC Range [2, 10]: 0.12 to 4 µg/mL
MIC50 [2, 11]: 1 µg/mL (≈ 1.71 µM)
MIC90 [2, 12]: 4 µg/mL (≈ 6.83 µM)
CLSI MIC interpretation I (intermediate) [3, 13]: 4.3^d %
CLSI MIC interpretation R (resistant) [3, 13]: 0.5^d %
CLSI MIC interpretation S (susceptible) [3, 13]: 95.2^d %
MIC Range [3, 14]: 0.12 to 16 µg/mL
MIC50 ([3]; read-out: MIC50): 0.5 µg/mL (≈ 0.854 µM)
MIC90 ([3]; read-out: MIC90): 2 µg/mL (≈ 3.41 µM)
CLSI MIC interpretation I (intermediate) [4, 15]: 8.1^d %
CLSI MIC interpretation R (resistant) [4, 15]: 0.0^d %
CLSI MIC interpretation S (susceptible) [4, 15]: 91.9^d %
MIC Range [4, 16]: 0.12 to 4 µg/mL
MIC50 ([4]; Enterobacterales with metallo-carbapenemases (74), cefiderocol 73 isolates, fixed concentration (μg/mL) in label, read-out: MIC50): 0.5 µg/mL (≈ 0.854 µM)
MIC90 ([4]; Enterobacterales with metallo-carbapenemases (74), cefiderocol 73 isolates, fixed concentration (μg/mL) in label, read-out: MIC90): 2 µg/mL (≈ 3.41 µM)
MIC90 ([4]; MBL-producing isolates, comparators, read-out: MIC90): ≤ 4 µg/mL
CLSI MIC interpretation I (intermediate) [5, 9]: 5.5^d %
CLSI MIC interpretation R (resistant) [5, 9]: 0.8^d %
CLSI MIC interpretation S (susceptible) [5, 9]: 93.7^d %
MIC Range [5, 10]: 0.12 to 16 µg/mL
MIC50 [5, 11]: 1 µg/mL (≈ 1.71 µM)
MIC90 [5, 12]: 2 µg/mL (≈ 3.41 µM)
MIC Range [6, 10]: 0.25 to 2 µg/mL
MIC50 [6, 11]: 1 µg/mL (≈ 1.71 µM)
MIC90 [6, 12]: 1 µg/mL (≈ 1.71 µM)
MIC Range ([7]; Imipenem/relebactam-nonsusceptible Pseudomonas aeruginosa (43), fixed concentration (μg/mL) in label): 1 to 16 µg/mL
MIC Range [7, 17]: 1 to 16 µg/mL
MIC50 ([7]; Pseudomonas aeruginosa, Imipenem/relebactam-nonsusceptible Pseudomonas aeruginosa (43), fixed concentration (μg/mL) in label, read-out: MIC50): 4 µg/mL
MIC90 ([7]; Pseudomonas aeruginosa, Imipenem/relebactam-nonsusceptible Pseudomonas aeruginosa (43), fixed concentration (μg/mL) in label, read-out: MIC90): 16 µg/mL
MIC50 ([7]; Pseudomonas aeruginosa, MEM-nonsusceptible Pseudomonas aeruginosa (76), fixed concentration (μg/mL) in label, read-out: MIC50): 4 µg/mL (≈ 6.83 µM)
MIC90 ([7]; Pseudomonas aeruginosa, MEM-nonsusceptible Pseudomonas aeruginosa (76), fixed concentration (μg/mL) in label, read-out: MIC90): 16 µg/mL (≈ 27.3 µM)
MIC50 ([7]; Pseudomonas aeruginosa, Table 2, broth microdilution, read-out: MIC50): 4 µg/mL (≈ 6.83 µM)
MIC90 ([7]; Pseudomonas aeruginosa, Table 2, broth microdilution, read-out: MIC90): 16 µg/mL (≈ 27.3 µM)
MIC Range ([7]; last subgroup of Table 2 (heading not shown; 45 isolates by the percentages, ceftolozane/tazobactam 0% S), broth microdilution): 1 to 16 µg/mL
MIC Range (96 P. aeruginosa): 0.5 to 16 µg/mL
MIC50 (96 P. aeruginosa; read-out: MIC50): 4 µg/mL (≈ 6.83 µM)
MIC90 (96 P. aeruginosa; read-out: MIC90): 16 µg/mL (≈ 27.3 µM)
CLSI MIC interpretation I (intermediate) [8, 9]: 3.8^d %
CLSI MIC interpretation R (resistant) [8, 9]: 0.0^d %
CLSI MIC interpretation S (susceptible) [8, 9]: 96.3^d %
MIC Range [8, 10]: 0.12 to 4 µg/mL
MIC50 [8, 11]: 1 µg/mL (≈ 1.71 µM)
MIC90 [8, 12]: 2 µg/mL (≈ 3.41 µM)

colistin
CLSI MIC interpretation I (intermediate) [1, 9]: 74.1%
CLSI MIC interpretation R (resistant) [1, 9]: 25.9%
MIC50 [1, 10]: 0.5 µg/mL
MIC90 [1, 10]: >64 µg/mL
CLSI MIC interpretation R (resistant) [2, 9]: 14.5%
MIC50 [2, 10]: 0.5 µg/mL
MIC90 [2, 10]: 8 µg/mL
CLSI MIC interpretation I (intermediate) [3, 13]: 78.3%
CLSI MIC interpretation R (resistant) [3, 13]: 21.7%
MIC50 [3, 14]: 0.5 µg/mL
MIC90 [3, 14]: >64 µg/mL
CLSI MIC interpretation I (intermediate) [4, 15]: 89.2%
CLSI MIC interpretation R (resistant) [4, 15]: 10.8%
MIC50 [4, 16]: 0.5 µg/mL
MIC90 [4, 16]: 4 µg/mL
MIC90 ([4]; MBL-producing isolates, comparators): ≤ 4 µg/mL
CLSI MIC interpretation I (intermediate) [5, 9]: 77.2%
CLSI MIC interpretation R (resistant) [5, 9]: 22.8%
MIC50 [5, 10]: 0.5 µg/mL
MIC90 [5, 10]: >64 µg/mL
CLSI MIC interpretation I (intermediate) [6, 18]: 94.5%
CLSI MIC interpretation R (resistant) [6, 18]: 5.5%
MIC50 [6, 10]: 1 µg/mL
MIC90 [6, 10]: 2 µg/mL
CLSI MIC interpretation I (intermediate) [7]: 100%
CLSI MIC interpretation R (resistant) [7]: 0%
MIC50 [7]: 1 µg/mL
MIC90 [7]: 1 µg/mL
MIC Range [7]: 0.5 to 2 µg/mL and 0.25 to 2 µg/mL
CLSI MIC interpretation (%) I ([7]; I, intermediate (including susceptible dose-dependent), CLSI breakpoints, last subgroup of Table 2): 100%
CLSI MIC interpretation I (intermediate) [7, 19]: 100%
CLSI MIC interpretation R (resistant) [7, 19]: 0%
MIC50 [7, 17]: 1 µg/mL
MIC90 [7, 17]: 1 µg/mL
MIC Range [7, 17]: 0.25 to 2 µg/mL
CLSI MIC interpretation (%) R ([7]; R, resistant, CLSI breakpoints, last subgroup of Table 2): 0%
MIC50 ([7]; Table 2, broth microdilution): 1 µg/mL
MIC90 ([7]; Table 2, broth microdilution): 1 µg/mL
CLSI MIC interpretation I (intermediate) (96 P. aeruginosa; [18]): 100%
CLSI MIC interpretation R (resistant) (96 P. aeruginosa; [18]): 0%
MIC50 (96 P. aeruginosa): 1 µg/mL
MIC90 (96 P. aeruginosa): 1 µg/mL
MIC Range (96 P. aeruginosa): 0.25 to 2 µg/mL
MIC50 [8, 10]: 0.5 µg/mL
MIC90 [8, 10]: >64 µg/mL
